Patent US11370847B2, “Single domain antibodies directed against intracellular antigens” (Singh Biotechnology, LLC, priority 2014, dated 2022)
Where “and” joins values, the source holds several entries; their conditions need not be identical. Equal values may be shown once. Numbered stars: 1 amine (or outer) side, 2 acyl side, 3 side chain; on linkers, the order of the positions; unused ones are H or OH. Bridge positions count the residues as written; N and C are the ends. Square brackets hold non-standard residues; d marks the D form. Peptide text beside a SMILES is read from it. I, II: the chains in the order shown. Actinocin(9to1) = Cc1c2oc3c(C)ccc(C(=O)[*:1])c3nc-2c(C(=O)[*:2])c(N)c1=O; NMeV = CN[C@H](C(=O)O)C(C)C; Sar = CNCC(=O)O

Legend:
SJSA-1 xenograft [1] = assay: SJSA-1 Bone Osteosarcoma subcutaneous xenograft model
SJSA-1 xenograft [2] = conditions: mouse, in vivo
SJSA-1 cells = assay: MTT proliferation assay, SJSA-1; format: cell-based, human
TNF-α = molecular target: T1, TNF-α (Homo sapiens, UniProt P01375); assay: Inhibition of TNF-α cytotoxicity in L929 fibroblast cells (MTS); format: cell-based, mouse; conditions: Assay 2, Actinomycin D only (no TNFα), sample replicates
T1 construct: purchased Sigma-Aldrich

[3] = SBT-100 5.0 mg/kg BID 14 days IP, Doxorubicin 7.0 mg/kg days 1, 8 and 14 IP
[4] = study day 9 post implant, IP, SBT-100 5.0 mg/kg BIDx14 and/or Doxorubicin 7.0 mg/kg days 1, 8, 14
[5] = study day 13 post implant, IP, SBT-100 5.0 mg/kg BIDx14 and/or Doxorubicin 7.0 mg/kg days 1, 8, 14
[6] = study day 16 post implant, IP, SBT-100 5.0 mg/kg BIDx14 and/or Doxorubicin 7.0 mg/kg days 1, 8, 14
[7] = study day 20 post implant, IP, SBT-100 5.0 mg/kg BIDx14 and/or Doxorubicin 7.0 mg/kg days 1, 8, 14
[8] = study day 21 post implant, IP, SBT-100 5.0 mg/kg BIDx14 and/or Doxorubicin 7.0 mg/kg days 1, 8, 14
[9] = study day 23 post implant, IP, SBT-100 5.0 mg/kg BIDx14 and/or Doxorubicin 7.0 mg/kg days 1, 8, 14
[10] = study day 27 post implant, IP, SBT-100 5.0 mg/kg BIDx14 and/or Doxorubicin 7.0 mg/kg days 1, 8, 14

T1 sequence (P01375 77-233 limits assumed): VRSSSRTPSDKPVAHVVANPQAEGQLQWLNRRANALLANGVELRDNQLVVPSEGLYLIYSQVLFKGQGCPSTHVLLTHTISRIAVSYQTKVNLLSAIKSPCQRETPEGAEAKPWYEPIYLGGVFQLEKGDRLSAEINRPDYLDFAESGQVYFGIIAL

COc1cccc2c1C(=O)c1c(O)c3c(c(O)c1C2=O)C[C@@](O)(C(=O)CO)C[C@@H]3O[C@H]1C[C@H](N)[C@H](O)[C@H](C)O1 [Doxorubicin, reference compound]
% T/C (SJSA-1 xenograft [1]; [3]): 17.91%
mean tumor growth inhibition at the end of the study (SJSA-1 xenograft [1]; [3]): 84.71%
mean tumor size (±S.E.) at termination (SJSA-1 xenograft [1]; [3]): 215.84±52.32
mean tumor size (±SE) at the last day of dosing (SJSA-1 xenograft [1]; [3]): 118.18±11.13
tumor doubling time (SJSA-1 xenograft [1]; control 8.22): 13.32
% Inh Mean (SJSA-1 xenograft [1]; [4]): 58.36%
% Inh Med (SJSA-1 xenograft [1]; [4]): 32.94%
Mean Abs (tumor measurement) (SJSA-1 xenograft [1]; [4]): 16.52 mm^3
Tumor Measurements, single animals (SJSA-1 xenograft [1]; [4]): 23.19 mm^3 and 14.32 mm^3 and 16.69 mm^3 and 0.00 mm^3 (2×) and 46.20 mm^3
% Inh Mean (SJSA-1 xenograft [1]; [5]): 3.16%
% Inh Med (SJSA-1 xenograft [1]; [5]): −23.18%
% T/C (SJSA-1 xenograft [1]; [5]): 107.14%
Mean Abs (tumor measurement) (SJSA-1 xenograft [1]; [5]): 76.72 mm^3
Median Abs (tumor measurement) (SJSA-1 xenograft [1]; [5]): 72.93 mm^3
Tumor Measurements, single animals (SJSA-1 xenograft [1]; [5]): 48.43 mm^3 and 20.77 mm^3 and 132.27 mm^3 and 104.16 mm^3 and 25.81 mm^3 and 132.66 mm^3 and 72.93 mm^3
% Inh Mean (SJSA-1 xenograft [1]; [6]): 55.02%
% Inh Med (SJSA-1 xenograft [1]; [6]): 55.11%
% T/C (SJSA-1 xenograft [1]; [6]): 51.96%
Mean Abs (tumor measurement) (SJSA-1 xenograft [1]; [6]): 78.09 mm^3
Median Abs (tumor measurement) (SJSA-1 xenograft [1]; [6]): 73.50 mm^3
Tumor Measurements, single animals (SJSA-1 xenograft [1]; [6]): 102.31 mm^3 and 37.33 mm^3 and 105.65 mm^3 and 118.75 mm^3 and 57.55 mm^3 and 51.55 mm^3 and 73.50 mm^3
% Inh Mean (SJSA-1 xenograft [1]; [7]): 74.31%
% Inh Med (SJSA-1 xenograft [1]; [7]): 71.58%
% T/C (SJSA-1 xenograft [1]; [7]): 30.35%
Mean Abs (tumor measurement) (SJSA-1 xenograft [1]; [7]): 79.33 mm^3
Median Abs (tumor measurement) (SJSA-1 xenograft [1]; [7]): 72.16 mm^3
Tumor Measurements, single animals (SJSA-1 xenograft [1]; [7]): 61.44 mm^3 and 68.71 mm^3 and 114.42 mm^3 and 93.72 mm^3 and 75.00 mm^3 and 69.85 mm^3 and 72.16 mm^3
% Inh Mean (SJSA-1 xenograft [1]; [8]): 70.41%
% Inh Med (SJSA-1 xenograft [1]; [8]): 61.77%
% T/C (SJSA-1 xenograft [1]; [8]): 36.16%
Mean Abs (tumor measurement) (SJSA-1 xenograft [1]; [8]): 118.18 mm^3
Tumor Measurements, single animals (SJSA-1 xenograft [1]; [8]): 85.16 mm^3 and 115.50 mm^3 and 133.21 mm^3 and 119.94 mm^3 and 160.89 mm^3 and 94.40 mm^3
% Inh Mean (SJSA-1 xenograft [1]; [9]): 72.79%
% Inh Med (SJSA-1 xenograft [1]; [9]): 71.86%
% T/C (SJSA-1 xenograft [1]; [9]): 30.43%
Mean Abs (tumor measurement) (SJSA-1 xenograft [1]; [9]): 141.94 mm^3
Median Abs (tumor measurement) (SJSA-1 xenograft [1]; [9]): 129.81 mm^3
Tumor Measurements, single animals (SJSA-1 xenograft [1]; [9]): 105.84 mm^3 and 142.33 mm^3 and 217.29 mm^3 and 151.94 mm^3 and 116.95 mm^3 and 117.30 mm^3
% Inh Mean (SJSA-1 xenograft [1]; [10]): 84.71%
% Inh Med (SJSA-1 xenograft [1]; [10]): 81.05%
% T/C (SJSA-1 xenograft [1]; [10]): 17.91%
Mean Abs (tumor measurement) (SJSA-1 xenograft [1]; [10]): 215.84 mm^3
Median Abs (tumor measurement) (SJSA-1 xenograft [1]; [10]): 215.84 mm^3
Tumor Measurements, single animals (SJSA-1 xenograft [1]; [10]): 163.53 mm^3 and 268.16 mm^3
number surviving at the end of the study (SJSA-1 xenograft [2]; Hsd: Athymic Nude-Fox1nu, 14 days): 2
Are the survival curves sig different? (SJSA-1 xenograft [2]): Yes
inhibition of SJSA-1 cells (SJSA-1 cells; 72 hours, SBT-100 at 50 and 100 μg/ml, Doxorubicin at all dose levels tested): significant dose-dependent inhibition
inhibition at 0.0313 µM (SJSA-1 cells; Homo sapiens, SJSA-1, 72 h): 28%
inhibition at 0.0625 µM (SJSA-1 cells; Homo sapiens, SJSA-1, 72 h): 29%
inhibition at 0.313 µM (SJSA-1 cells; Homo sapiens, SJSA-1, 72 h): 31%
inhibition at 0.5 µM (SJSA-1 cells; Homo sapiens, SJSA-1, 72 h): 36%
inhibition at 0.625 µM (SJSA-1 cells; Homo sapiens, SJSA-1, 72 h): 29%
inhibition at 1 µM (SJSA-1 cells; Homo sapiens, SJSA-1, 72 h): 49%
inhibition at 5 µM (SJSA-1 cells; Homo sapiens, SJSA-1, 72 h): 52%
inhibition at 10 µM (SJSA-1 cells; Homo sapiens, SJSA-1, 72 h): 45%
Mean Abs (±SD) (SJSA-1 cells; Table 72 (experiment 5a), Doxorubicin 0.0313 μM alone, 72 hours): 0.281 ± 0.031
Mean Abs (±SD) (SJSA-1 cells; Table 72 (experiment 5a), Doxorubicin 0.0625 μM alone, 72 hours): 0.277 ± 0.035
Mean Abs (±SD) (SJSA-1 cells; Table 72 (experiment 5a), Doxorubicin 0.5 μM alone, 72 hours): 0.248 ± 0.038
Mean Abs (±SD) (SJSA-1 cells; Table 72 (experiment 5a), Doxorubicin 1 μM alone, 72 hours): 0.197 ± 0.012
Mean Abs (±SD) (SJSA-1 cells; Table 73 (Experiment 2, 5b), Doxorubicin 0.313 μM alone, 72 hours): 0.519 ± 0.004
Mean Abs (±SD) (SJSA-1 cells; Table 73 (Experiment 2, 5b), Doxorubicin 0.625 μM alone, 72 hours): 0.530 ± 0.024
Mean Abs (±SD) (SJSA-1 cells; Table 73 (Experiment 2, 5b), Doxorubicin 5.00 μM alone, 72 hours): 0.358 ± 0.003
Mean Abs (±SD) (SJSA-1 cells; Table 73 (Experiment 2, 5b), Doxorubicin 10.0 μM alone, 72 hours): 0.414 ± 0.007

Cc1c2oc3c(C)ccc(C(=O)N[C@@H]4C(=O)N[C@H](C(C)C)C(=O)N5CCC[C@H]5C(=O)N(C)CC(=O)N(C)[C@@H](C(C)C)C(=O)O[C@@H]4C)c3nc-2c(C(=O)N[C@@H]2C(=O)N[C@H](C(C)C)C(=O)N3CCC[C@H]3C(=O)N(C)CC(=O)N(C)[C@@H](C(C)C)C(=O)O[C@@H]2C)c(N)c1=O [Actinomycin D] (I: T[dV]P[Sar][NMeV] / II: T[dV]P[Sar][NMeV]; ester I:1-I:C, II:1-II:C; linker I:N-II:N via Actinocin(9to1))
% Toxicity (TNF-α): 0%
